Assay results taken from PMC6812009, “Covalent Aurora A regulation by the metabolic integrator coenzyme A” (Redox Biology, 2019).
Where two headings read alike, the source gives them in different places.

Key:
Assay in all cases: Kinase profiling screen (radioactive filter-binding assay)
Assay type in all cases: biochemical
[1] = molecular target: MKK2 (Homo sapiens, UniProt P36507); settings: 100 μM compound, 5 μM ATP; read-out: Kinase activity, % of activity in the absence of inhibitor
Summary of the method: (§1)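 Panel of 117 recombinant kinases; CoA, dpCoA, ADP each at 100 μM final, duplicates; model substrates, ATP at optimal level.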

[2] = molecular target: STK33 (Homo sapiens, UniProt Q9BYT3); settings: 100 μM compound, 50 μM ATP; read-out: Kinase activity, % of activity in the absence of inhibitor
Summary of the method: as §1

[3] = molecular target: T1, p38δ MAPK (Homo sapiens, UniProt O15264); settings: 100 μM compound, 5 μM ATP; read-out: Kinase activity, % of activity in the absence of inhibitor
T1 sequence (O15264 1-365): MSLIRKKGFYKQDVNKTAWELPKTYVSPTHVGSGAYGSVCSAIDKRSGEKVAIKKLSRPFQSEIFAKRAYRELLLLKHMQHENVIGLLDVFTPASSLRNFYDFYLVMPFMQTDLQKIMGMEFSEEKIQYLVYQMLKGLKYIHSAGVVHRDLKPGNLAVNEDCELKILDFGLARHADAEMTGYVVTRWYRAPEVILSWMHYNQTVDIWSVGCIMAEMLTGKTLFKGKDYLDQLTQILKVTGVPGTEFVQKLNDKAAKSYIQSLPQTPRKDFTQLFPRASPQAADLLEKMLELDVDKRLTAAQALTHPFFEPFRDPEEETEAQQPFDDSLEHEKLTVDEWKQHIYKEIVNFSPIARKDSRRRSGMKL
Summary of the method: as §1

[4] = molecular target: T2, TBK1 (Homo sapiens, UniProt Q9UHD2); settings: 100 μM compound, 50 μM ATP; read-out: Kinase activity, % of activity in the absence of inhibitor
T2 sequence (Q9UHD2 1-729): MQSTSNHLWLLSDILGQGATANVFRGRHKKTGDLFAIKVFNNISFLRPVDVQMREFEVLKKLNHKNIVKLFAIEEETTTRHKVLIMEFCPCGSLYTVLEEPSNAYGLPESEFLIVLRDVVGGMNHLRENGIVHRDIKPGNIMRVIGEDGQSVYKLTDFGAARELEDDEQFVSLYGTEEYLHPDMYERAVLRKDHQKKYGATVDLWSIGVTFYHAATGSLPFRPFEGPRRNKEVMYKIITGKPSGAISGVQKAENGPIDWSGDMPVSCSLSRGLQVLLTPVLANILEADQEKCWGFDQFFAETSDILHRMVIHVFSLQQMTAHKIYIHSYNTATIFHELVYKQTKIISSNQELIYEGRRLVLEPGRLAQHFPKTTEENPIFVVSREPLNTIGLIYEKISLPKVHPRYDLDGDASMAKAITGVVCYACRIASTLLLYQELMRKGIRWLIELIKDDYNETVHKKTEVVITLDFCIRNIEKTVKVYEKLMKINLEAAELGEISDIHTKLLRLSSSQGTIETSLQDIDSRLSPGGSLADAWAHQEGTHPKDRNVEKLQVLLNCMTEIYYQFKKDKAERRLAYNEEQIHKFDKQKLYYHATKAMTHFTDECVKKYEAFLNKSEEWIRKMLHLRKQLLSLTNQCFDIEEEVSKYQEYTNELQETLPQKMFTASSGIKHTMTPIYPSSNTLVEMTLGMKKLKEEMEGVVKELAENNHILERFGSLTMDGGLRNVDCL
Summary of the method: as §1

[5] = molecular target: RSK2 (Homo sapiens, UniProt P51812); settings: 100 μM compound, 50 μM ATP; read-out: Kinase activity, % of activity in the absence of inhibitor
Summary of the method: as §1

[6] = molecular target: Src (Homo sapiens, UniProt P12931); settings: for activity at 100 µM: 100 μM compound, 50 μM ATP, read-out: Kinase activity, % of activity in the absence of inhibitor
Summary of the method: as §1

[7] = molecular target: T3, Aurora A (Homo sapiens, UniProt O14965); settings: for activity at 100 µM: 100 μM compound, 5 μM ATP, read-out: Kinase activity, % of activity in the absence of inhibitor
T3 sequence (O14965 1-403): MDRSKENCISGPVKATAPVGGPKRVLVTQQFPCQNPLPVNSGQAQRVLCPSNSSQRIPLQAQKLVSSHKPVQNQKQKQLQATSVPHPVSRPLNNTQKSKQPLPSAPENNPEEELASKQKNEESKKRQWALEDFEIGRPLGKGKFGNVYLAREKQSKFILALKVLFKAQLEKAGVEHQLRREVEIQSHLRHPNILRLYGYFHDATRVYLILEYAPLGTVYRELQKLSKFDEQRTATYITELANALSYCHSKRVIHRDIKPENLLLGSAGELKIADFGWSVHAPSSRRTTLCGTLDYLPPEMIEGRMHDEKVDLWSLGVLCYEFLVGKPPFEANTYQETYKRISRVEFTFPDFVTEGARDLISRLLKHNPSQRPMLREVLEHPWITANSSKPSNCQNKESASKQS
Summary of the method: as §1

[8] = molecular target: PKCα (Homo sapiens, UniProt P17252); settings: 100 μM compound, read-out: Kinase activity, % of activity in the absence of inhibitor
Summary of the method: as §1

Sequence of STK33 (Q9BYT3 whole entry): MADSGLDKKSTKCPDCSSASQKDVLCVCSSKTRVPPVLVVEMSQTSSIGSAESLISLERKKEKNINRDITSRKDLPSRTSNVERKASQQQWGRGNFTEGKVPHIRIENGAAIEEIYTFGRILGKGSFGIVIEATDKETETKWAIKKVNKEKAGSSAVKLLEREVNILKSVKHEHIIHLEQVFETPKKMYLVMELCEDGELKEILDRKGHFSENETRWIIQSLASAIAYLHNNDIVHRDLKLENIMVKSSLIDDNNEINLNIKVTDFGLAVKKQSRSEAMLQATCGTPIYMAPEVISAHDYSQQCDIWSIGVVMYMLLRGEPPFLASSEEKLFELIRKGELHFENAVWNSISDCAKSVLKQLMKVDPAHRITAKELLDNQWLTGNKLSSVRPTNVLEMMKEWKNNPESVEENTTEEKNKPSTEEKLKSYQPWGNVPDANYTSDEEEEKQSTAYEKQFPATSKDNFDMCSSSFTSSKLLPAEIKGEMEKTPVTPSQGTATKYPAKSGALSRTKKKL
Sequence of MKK2 (P36507 whole entry): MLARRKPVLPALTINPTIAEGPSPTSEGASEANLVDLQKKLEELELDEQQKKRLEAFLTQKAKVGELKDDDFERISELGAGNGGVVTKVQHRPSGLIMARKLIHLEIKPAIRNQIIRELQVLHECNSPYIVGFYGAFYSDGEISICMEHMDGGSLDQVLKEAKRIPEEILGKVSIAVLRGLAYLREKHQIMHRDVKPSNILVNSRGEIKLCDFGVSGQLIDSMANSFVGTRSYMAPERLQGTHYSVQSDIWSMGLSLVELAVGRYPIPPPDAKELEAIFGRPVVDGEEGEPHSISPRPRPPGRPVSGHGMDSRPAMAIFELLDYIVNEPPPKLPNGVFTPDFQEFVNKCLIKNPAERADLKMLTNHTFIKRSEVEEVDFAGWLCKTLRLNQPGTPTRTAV
Sequence of RSK2 (P51812 whole entry): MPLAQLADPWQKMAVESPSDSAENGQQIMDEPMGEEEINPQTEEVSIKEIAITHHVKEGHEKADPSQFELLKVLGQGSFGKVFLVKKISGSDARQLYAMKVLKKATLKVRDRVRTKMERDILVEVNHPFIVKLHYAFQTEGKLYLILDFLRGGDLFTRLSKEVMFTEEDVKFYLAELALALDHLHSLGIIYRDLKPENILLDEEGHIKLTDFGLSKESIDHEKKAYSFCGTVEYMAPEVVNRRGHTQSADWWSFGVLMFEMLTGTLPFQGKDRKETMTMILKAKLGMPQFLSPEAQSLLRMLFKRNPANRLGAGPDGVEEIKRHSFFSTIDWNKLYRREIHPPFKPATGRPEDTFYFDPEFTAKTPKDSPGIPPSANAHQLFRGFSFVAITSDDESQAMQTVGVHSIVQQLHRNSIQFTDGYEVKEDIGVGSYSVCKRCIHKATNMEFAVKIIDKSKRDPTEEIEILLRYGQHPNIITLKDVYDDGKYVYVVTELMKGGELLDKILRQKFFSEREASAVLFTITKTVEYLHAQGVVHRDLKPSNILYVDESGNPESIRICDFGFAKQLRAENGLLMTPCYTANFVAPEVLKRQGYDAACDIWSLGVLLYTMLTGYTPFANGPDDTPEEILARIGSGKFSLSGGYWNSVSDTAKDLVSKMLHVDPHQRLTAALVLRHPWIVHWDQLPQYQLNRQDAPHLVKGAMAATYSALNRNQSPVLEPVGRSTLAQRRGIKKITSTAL
Sequence of Src (P12931 whole entry): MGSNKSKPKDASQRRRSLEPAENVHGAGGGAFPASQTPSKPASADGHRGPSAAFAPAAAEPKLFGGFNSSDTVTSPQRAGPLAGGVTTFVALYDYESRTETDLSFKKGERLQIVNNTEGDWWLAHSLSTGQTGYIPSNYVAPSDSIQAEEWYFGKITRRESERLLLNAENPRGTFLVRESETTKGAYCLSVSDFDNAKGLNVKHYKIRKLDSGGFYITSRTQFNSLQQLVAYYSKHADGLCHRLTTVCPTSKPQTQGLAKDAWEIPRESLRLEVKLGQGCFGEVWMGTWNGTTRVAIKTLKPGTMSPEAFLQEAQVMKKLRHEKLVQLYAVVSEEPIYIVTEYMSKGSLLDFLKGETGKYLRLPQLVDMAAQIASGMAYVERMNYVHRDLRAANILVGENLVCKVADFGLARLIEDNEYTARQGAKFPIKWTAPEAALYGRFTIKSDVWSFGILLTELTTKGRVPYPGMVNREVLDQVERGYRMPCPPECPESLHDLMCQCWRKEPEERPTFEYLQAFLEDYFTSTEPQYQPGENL

| Structure (SMILES) | activity at 100 µM [1] [%] | activity at 100 µM [2] [%] | activity at 100 µM [3] [%] | activity at 100 µM [4] [%] | activity at 100 µM [5] [%] | inhibition at 100 µM ([6]; 100 μM CoA, kinase profiling screen) [%] | activity at 100 µM [6] [%] | SRC inhibition (in words) ([6]; kinase profiling, 100 μM) | activity at 100 µM [7] [%] | inhibition at 100 µM ([7]; at 100 μM, n = 3) [%] | activity at 100 µM ([8]; 5 μM ATP) [%] | activity at 100 µM ([8]; 20 μM ATP) [%] |
| --- | --- | --- | --- | --- | --- | --- | --- | --- | --- | --- | --- | --- |
| CC(C)(COP(=O)(O)OP(=O)(O)OC[C@H]1O[C@@H](n2cnc3c(N)ncnc32)[C@H](O)[C@@H]1OP(=O)(O)O)[C@@H](O)C(=O)NCCC(=O)NCCS [CoA, Coenzyme A] | 103 | 71.8 | 128 | 106 | 96.5 | ≤ 50 | 43.8 | modestly inhibited | 13.4 | 87 | 104 | 78.1 |
| CC(C)(COP(=O)(O)OP(=O)(O)OCC1OC(n2cnc3c(N)ncnc32)C(O)C1O)C(O)C(=O)NCCC(=O)NCCS (stereo not drawn) [dpCoA, dephospho-CoA] | 53 | 83.3 | 71.3 | 110 | 62.9 | – | 8.9 | – | 29.9 | – | 76.8 | 88.9 |
| Nc1ncnc2c1ncn2C1OC(COP(=O)(O)OP(=O)(O)O)C(O)C1O (stereo not drawn) [ADP] | 35.4 | 54.6 | 37.3 | 95.1 | 47.9 | – | 31.8 | – | 38 | – | 38.6 | 76.5 |
